Results from article PMC11004395 (Saudi Pharmaceutical Journal : SPJ, 2024).

Target: bovine xanthine oxidase (BXO) (Bos taurus, UniProt P80457)
Experiment: XO inhibitory assay, double enzyme detection
Assay type: biochemical
Conditions: read-out: IC50 of moderately active compounds, moderate activities (Fig. 6)

Chain of bovine xanthine oxidase (BXO) (P80457 whole entry): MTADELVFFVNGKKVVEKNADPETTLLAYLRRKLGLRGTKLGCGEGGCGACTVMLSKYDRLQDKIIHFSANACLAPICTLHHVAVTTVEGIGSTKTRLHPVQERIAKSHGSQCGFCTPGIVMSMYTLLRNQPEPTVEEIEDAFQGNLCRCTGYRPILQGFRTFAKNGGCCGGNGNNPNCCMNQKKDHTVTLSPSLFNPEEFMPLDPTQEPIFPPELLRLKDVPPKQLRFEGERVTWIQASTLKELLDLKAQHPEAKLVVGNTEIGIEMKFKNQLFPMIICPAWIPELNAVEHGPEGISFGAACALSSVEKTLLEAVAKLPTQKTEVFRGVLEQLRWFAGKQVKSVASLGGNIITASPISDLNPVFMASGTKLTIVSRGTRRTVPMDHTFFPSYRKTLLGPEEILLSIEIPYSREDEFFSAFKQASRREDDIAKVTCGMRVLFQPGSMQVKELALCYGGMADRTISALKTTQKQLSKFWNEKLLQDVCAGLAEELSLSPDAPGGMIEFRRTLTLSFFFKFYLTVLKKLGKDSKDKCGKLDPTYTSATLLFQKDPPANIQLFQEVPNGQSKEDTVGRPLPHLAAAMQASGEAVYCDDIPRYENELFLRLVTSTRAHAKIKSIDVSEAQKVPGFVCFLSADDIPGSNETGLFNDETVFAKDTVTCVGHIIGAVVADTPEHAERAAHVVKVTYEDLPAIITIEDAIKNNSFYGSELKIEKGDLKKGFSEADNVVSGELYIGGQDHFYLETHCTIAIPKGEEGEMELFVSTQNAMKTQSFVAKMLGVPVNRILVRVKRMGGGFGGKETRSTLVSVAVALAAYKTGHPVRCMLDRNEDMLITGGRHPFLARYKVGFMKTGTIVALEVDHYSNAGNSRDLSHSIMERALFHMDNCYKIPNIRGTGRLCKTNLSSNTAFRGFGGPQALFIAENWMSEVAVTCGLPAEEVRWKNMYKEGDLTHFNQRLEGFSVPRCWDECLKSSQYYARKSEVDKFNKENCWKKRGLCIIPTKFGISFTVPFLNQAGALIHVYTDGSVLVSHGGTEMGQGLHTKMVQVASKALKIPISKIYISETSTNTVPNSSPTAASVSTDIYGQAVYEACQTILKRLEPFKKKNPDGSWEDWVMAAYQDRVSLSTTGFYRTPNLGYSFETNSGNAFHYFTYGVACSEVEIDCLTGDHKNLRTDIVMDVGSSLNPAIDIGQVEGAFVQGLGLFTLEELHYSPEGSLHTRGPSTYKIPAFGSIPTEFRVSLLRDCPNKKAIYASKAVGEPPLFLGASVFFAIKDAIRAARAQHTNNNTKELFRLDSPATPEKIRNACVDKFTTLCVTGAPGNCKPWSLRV

SMILES: O=[N+]([O-])c1ccc(C=Nn2c(Cn3nnc4ccccc43)n[nH]c2=S)cc1 [Compound 8, 3-((1H-Benzo[d][1,2,3]triazol-1-yl)methyl)-4-((4-nitrobenzylidene)amino)-1H-1,2,4-triazole-5(4H)-thione]
- IC50: ≤ 263 µM
